Active and inactive are the calls of the source. No cut-off for these calls is given here.
How the values were obtained:
[1] = tested on: RAW264.7; experiment: Antiinflammatory activity in mouse RAW264.7 assessed as decrease in LPS-induced TNF-alpha production at 10 uM pretreated with 1 ug/ml LPS for 22 hrs followed by addition of compound for 24 hrs by ELISA; type: functional, cell-based
[2] = tested on: RAW264.7; experiment: Antiinflammatory activity in mouse RAW264.7 assessed as decrease in LPS-induced IL-6 production at 10 uM pretreated with 1 ug/ml LPS for 22 hrs followed by addition of compound for 24 hrs by ELISA; type: functional, cell-based
[3] = tested on: RAW264.7; experiment: Cytotoxicity against mouse RAW264.7 cells at 1 to 10 uM for 24 hrs by MTT assay; type: cell-based; conditions: raw264.7, 24 h
[4] = Octanol/water partition coefficient, logP of the compound by shake flask method; type: physicochemical
[5] = tested on: RAW264.7; experiment: Cytotoxicity against mouse RAW264.7 cells at 100 uM for 24 hrs by MTT assay; type: cell-based; conditions: raw264.7, 24 h
[6] = tested on: RAW264.7; experiment: Antiinflammatory activity in mouse RAW264.7 assessed as inhibition of LPS-induced notch-1 expression at 10 uM pretreated with 1 ug/ml LPS for 22 hrs followed by addition of compound for 24 hrs by Western blot analysis; type: functional, cell-based
[7] = tested on: RAW264.7; experiment: Antiinflammatory activity in mouse RAW264.7 assessed as decrease in LPS-induced TNF-alpha production pretreated with 1 ug/ml LPS for 22 hrs followed by addition of compound for 24 hrs by ELISA; type: functional, cell-based
[8] = tested on: RAW264.7; experiment: Antiinflammatory activity in mouse RAW264.7 assessed as decrease in LPS-induced IL-6 production pretreated with 1 ug/ml LPS for 22 hrs followed by addition of compound for 24 hrs by ELISA; type: functional, cell-based
[9] = tested on: RAW264.7; experiment: Antiinflammatory activity in LPS-induced mouse RAW264.7 assessed as inhibition of LPS-induced iNOS expression pretreated with 1 ug/ml LPS for 22 hrs followed by addition of compound for 24 hrs by Western blot analysis; type: functional, cell-based

SMILES	logP [4]	Activity [1]	Activity [2]	Activity [3]	Activity [5]	Activity [6]	Activity [7]	Activity [8]	Activity [9]
COc1ccc(CCNCc2c(O)cc3c(c2O)C(=O)C[C@@H](c2ccc(OC)c(O)c2)O3)cc1	1.56	Active	Active	Non-toxic	Toxic				
COc1ccc2c(c1)c(CC(=O)O)c(C)n2C(=O)c1ccc(Cl)cc1		Active	Active						
COc1ccc([C@@H]2CC(=O)c3c(cc(O)c(CNCCc4ccccc4)c3O)O2)cc1O	1.67	Active	Active	Non-toxic	Toxic				
COc1ccc([C@@H]2CC(=O)c3c(cc(O)c(CNCCc4ccc(Cl)cc4)c3O)O2)cc1O	1.77	Active	Active						
CCN1CCN(Cc2c(O)cc3c(c2O)C(=O)C[C@@H](c2ccc(OC)c(O)c2)O3)CC1	-0.75	Active	Active	Non-toxic	Toxic	Active	Dose-dependent effect	Dose-dependent effect	
COc1ccc([C@@H]2CC(=O)c3c(cc(O)c(CN4CCN(CCN5CCOCC5)CC4)c3O)O2)cc1O	1.18	Active	Active						
COc1ccc([C@@H]2CC(=O)c3c(cc(O)c(CN4CCOCC4)c3O)O2)cc1O	1.23	Active	Active						
COc1ccc([C@@H]2CC(=O)c3c(cc(O)c(CN4CCN(C)CC4)c3O)O2)cc1O	1.19	Active	Active	Non-toxic					
COc1ccc([C@@H]2CC(=O)c3c(O)cc(O)cc3O2)cc1O [HESPERETIN]	2.15	Active	Active	Non-toxic					
COc1ccc([C@@H]2CC(=O)c3c(cc(O)c(CNCCc4ccc([N+](=O)[O-])cc4)c3O)O2)cc1O	1.73	Active	Active						
COc1ccc([C@@H]2CC(=O)c3c(cc(O)c(CN4CCN(CCO)CC4)c3O)O2)cc1O	1.15	Active	Active						
COc1ccc([C@@H]2CC(=O)c3c(cc(O)c(CNCCCN4CCOCC4)c3O)O2)cc1O	1.2	Active	Active						

Continued, in another order:

logP [4]	SMILES	Activity [1]	Activity [2]	Activity [3]	Activity [5]	Activity [6]	Activity [7]	Activity [8]	Activity [9]
1.03	COc1ccc([C@@H]2CC(=O)c3c(cc(O)c(CN(C)C)c3O)O2)cc1O	Active	Active						
-0.76	COc1ccc([C@@H]2CC(=O)c3c(cc(O)c(CNC(C)(C)C)c3O)O2)cc1O	Active	Active	Non-toxic	Toxic	Active	Dose-dependent effect	Dose-dependent effect	Dose-dependent effect
0.04	CCC(C)NCc1c(O)cc2c(c1O)C(=O)C[C@@H](c1ccc(OC)c(O)c1)O2 (stereo not given in full)	Active	Active						
1.68	CCN(CC)Cc1c(O)cc2c(c1O)C(=O)C[C@@H](c1ccc(OC)c(O)c1)O2	Active	Active	Non-toxic					
-0.26	COc1ccc([C@@H]2CC(=O)c3c(cc(O)c(CNC(C)C)c3O)O2)cc1O	Active	Active	Non-toxic		Active	Dose-dependent effect	Dose-dependent effect	
1.72	COc1ccc([C@@H]2CC(=O)c3c(cc(O)c(CNC(C)c4ccccc4)c3O)O2)cc1O (stereo not given in full)	Active	Active						

Reference: ChEMBL document CHEMBL3763074, “Hesperetin derivatives: Synthesis and anti-inflammatory activity” (Bioorg Med Chem Lett, 2016)
